Assay results: EP4559919A1, “TRICYCLIC-CONTAINING MACROCYCLIC COMPOUND AND USE THEREOF” (Medshine Discovery Inc., priority 2022, dated 2024)
Where two headings read alike, the source gives them in different places.

What was measured:
ALK(G1202R/L1196M) = biological target: T1, ALK(G1202R/L1196M) (Homo sapiens, UniProt Q9UM73, G1202R/L1196M); assay: In vitro kinase inhibitory activity assay, Experimental method 2 (ADP-Glo); assay type: biochemical
T1 construct: purchased Carna
Procedure: (§1) The kinase inhibitory activity assays of the compounds against ALK, ALK^L1196M, ALK^G1202R, ALK^G1202R/L1196M, ROS1, and TRKB were conducted at Wuhan Heyan Biotechnology Co., Ltd. or Hefei PreceDo Biotechnology Co., Ltd.
(§2) Experimental materials: ALK (G1202R/L1196M) Active and TRKB were purchased from Carna; IGF1 was purchased from GenScript; PolyE4Y1 was purchased from SIGMA; ADP-Glo™ Reagent was purchased from Promega; ATP was purchased from Promega; Kinase Detection Reagent was purchased from Promega; microplate reader ( PerkinElmer).
Reaction system: ALK(G1202R/L1196M) reaction concentration 8.63 nM, ATP concentration 5.0 µM, substrate IGF1 concentration 0.2 µg/µL. ALK(G1202R/L1196M) kinase buffer was 40 mM Tris-HCl (pH 7.5) + 20 mM magnesium chloride + 0.1 mg/mL BSA + 50 µM DTT.
(§3) ALK(G1202R/L1196M) and TRKB detection method: 2 µL of kinase and 1 µL of compound were added to a 384-well plate; 2 µL of substrate/ATP mixture was added and incubated at room temperature in the dark for 60 minutes; 5 µL of ADP-Glo™ reagent was added and incubated at room temperature for 40 minutes; 10 µL of kinase detection reagent was added and incubated at room temperature for 30 minutes; the plate was read on a microplate reader, and luminescence was recorded (integration time set to 0.5 seconds).
(§4) The IC50 value could then be derived by performing a curve fit using a four-parameter logistic model (obtained using the "log(inhibitor) vs. response -- Variable slope" mode in GraphPad Prism).

TRKB = biological target: T2, TRKB (Homo sapiens, UniProt Q16620); assay: as above; assay type: biochemical
T2 construct: purchased Carna
T2 sequence (Q16620 32-822): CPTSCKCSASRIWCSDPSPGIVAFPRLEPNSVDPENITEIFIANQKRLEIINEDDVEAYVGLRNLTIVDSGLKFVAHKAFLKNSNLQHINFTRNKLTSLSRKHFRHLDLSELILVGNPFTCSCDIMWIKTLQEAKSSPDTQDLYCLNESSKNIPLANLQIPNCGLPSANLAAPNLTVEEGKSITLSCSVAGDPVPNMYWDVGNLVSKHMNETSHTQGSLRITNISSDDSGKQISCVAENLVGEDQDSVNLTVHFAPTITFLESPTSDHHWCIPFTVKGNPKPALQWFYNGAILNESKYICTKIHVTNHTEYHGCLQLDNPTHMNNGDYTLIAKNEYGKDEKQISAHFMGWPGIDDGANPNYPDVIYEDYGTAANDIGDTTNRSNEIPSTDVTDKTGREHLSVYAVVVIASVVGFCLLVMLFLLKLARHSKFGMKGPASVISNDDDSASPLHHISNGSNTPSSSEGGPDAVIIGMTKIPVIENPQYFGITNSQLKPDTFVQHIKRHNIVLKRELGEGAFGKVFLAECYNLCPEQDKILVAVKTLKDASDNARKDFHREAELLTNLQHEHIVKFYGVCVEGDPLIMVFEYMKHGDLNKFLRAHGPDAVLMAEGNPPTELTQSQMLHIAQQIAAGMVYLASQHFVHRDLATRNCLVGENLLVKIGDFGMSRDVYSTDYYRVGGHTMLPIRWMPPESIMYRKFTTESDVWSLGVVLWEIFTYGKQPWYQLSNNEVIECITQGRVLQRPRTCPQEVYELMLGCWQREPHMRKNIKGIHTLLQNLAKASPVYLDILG
Procedure: as §1, §2
TRKB reaction concentration 4.47 nM, ATP concentration 5.0 µM, substrate PolyE4Y1 concentration 0.2 µg/µL. TRKB kinase buffer was 40 mM Tris-HCl (pH 7.5) + 20 mM magnesium chloride + 2.5 mM manganese chloride + 0.1mg/mL BSA+ 50 µM DTT.
as §3, §4

[1] = test system: Ba/F3-EML4-ALK-G1202R/L1196M; assay: Anti-proliferative activity test on Ba/F3 cell lines (CellTiter-Glo); assay type: cell-based; conditions: Ba/F3 EML4-ALK-G1202R-L1196M; 72 hours; read-out: Half maximal inhibitory concentration IC50 for cells Ba/F3-EML4-ALK-G1202R/L1196 M
Procedure: (§5) • (1) Cell culture: The cell lines were cultured in an incubator at 37°C with 5% CO2. Regular passaging was performed, and cells in the logarithmic growth phase were selected for plating; • (2) Preparation of compound storage plate: The test compounds were prepared into a 10 mM solution with DMSO (Stock Con.); The compounds were then prepared into a 1 mM solution with DMSO (Work Con.); 1 µL of the stock solution was mixed with 9 µL of DMSO to prepare a 10 µL work solution. • (3) Preparation of 1000× compound storage plate (tube): The compounds were 3-fold serially diluted from […] to the lowest concentration, for a total of 8 concentrations; • (4) Preparation of 20× compound working solution: 98 µL of cell culture medium was added to a flat-bottomed 96-well transparent drug plate. From the 1000× compound storage plate, 2 µL of the compound was pipetted into the cell culture medium in the 96-well transparent drug plate. In the solvent control, 2 µL of DMSO was added. After the compound or DMSO was added, the mixture was homogenized using a pipette. • (5) Cells were stained with trypan blue and viable cells were counted to ensure a cell viability of 90% or more. The cell concentration was adjusted to an appropriate concentration; • (6) 95 µL of cell suspension (2000 cells/well) was added to each well of the compound assay cell plate, and cell-free culture medium containing 0.1% DMSO was added to the Min control wells; • (7) Administration in the compound assay cell plate: 5 µL of 20× compound working solution was added to the cell culture plate, 5 µL of DMSO-cell culture medium mixture was added to the Max control wells, and the final concentration of DMSO was 0.1%; • (8) The culture plate was then incubated in an incubator at 37°C with 5% CO2 for 72 hours; • (9) The following operations were conducted in accordance with the instructions of the Promega CellTiter-Glo Luminescent Cell Viability Assay Kit (Promega-G7573): CellTiter-Glo buffer was thawed and brought to room temperature; CellTiter-Glo substrate was brought to room temperature; CellTiter-Glo buffer was added to a bottle of CellTiter-Glo substrate to dissolve the substrate, thereby preparing CellTiter-Glo working solution; The mixture was slowly vortexed and shaken to be fully dissolved; The cell culture plate was removed and allowed to equilibrate to room temperature for 10 minutes; 50 µL (equal to half the volume of cell culture medium in each well) of CellTiter-Glo working solution was added to each well; The culture plate was shaken on an orbital shaker for 2 minutes to induce cell lysis; The plate was then left at room temperature for 10 minutes to stabilize the luminescent signal; The luminescent signal was detected using a SpectraMax Paradigm plate reader; Cell viability assay was conducted using CellTiter-Glo luminescence method.
(§6) Data analysis: The corresponding […] value (RLU) for each well was obtained from SpectraMax Paradigm readings. […] The inhibition rates corresponding to compounds at different concentrations were calculated in Excel, and the inhibition rate curves were plotted using GraphPad Prism software to calculate relevant parameters, including the maximum and minimum inhibition rates of the cells and the IC50 value.

Ba/F3-TEL-TRKB = assay: as above; assay type: cell-based; conditions: Mus musculus, BaF3; 72 hours; read-out: Half maximal inhibitory concentration IC50 for cells Ba/F3-TEL-TRKB
Procedure: as §5, §6

[2] = Cell permeability test, MDCKII-MDR1 monolayer; assay type: in vitro ADME; conditions: dog, MDCK-MDR1, pH 7.4
Procedure: The permeability and efflux ratio of the test compounds were evaluated using the MDCKII-MDR1 monolayer cell test system to determine the potential of the compounds to cross the blood-brain barrier and to be effluxed by the P-gp transporter.
MDCKII-MDR1 cells (from the Netherlands Cancer Institute) were seeded into a 96-well cell plate (from Corning) at a cell density of 2.5 × 10^5 cells/mL and cultured for 7 days to form a confluent monolayer.
The apparent permeability coefficient (Papp, cm/s) was calculated using the following formula: Papp = (dCr / dt) × Vr /(A × C0). Herein, dCr/dt is the cumulative concentration of the compound at the receiving end per unit time (µM/s); Vr is the volume of the solution at the receiving end (the volumes of the solution at the apical and basal sides are 0.075 mL and 0.250 mL, respectively); A is the relative surface area of the cell monolayer (0.0804 cm^2); C0 is the initial concentration (nM) of the test compound at the dosing end or the peak area ratio of the control compound. The efflux ratio was calculated using the following formula: ER = Papp(BA) / Papp(AB). The recovery rate was calculated using the following formula: % Recovery = 100 × [(Vr × Cr)+(Vd × Cd)] /(Vd × C0). Herein, C0 is the initial concentration of the test compound at the dosing end (nM) or the peak area ratio of the control compound; Vd is the volume at the dosing end (0.075 mL for the apical side and 0.250 mL for the basal side); Cd and Cr are the final concentrations (nM) of the test compound at the dosing end and the receiving end or the peak area ratios of the control compound, respectively.

[3] = Experimental method 2, ATP 5.0 µM, substrate IGF1, read-out: Kinase half maximal inhibitory concentration IC50 ALK^G1202R/L1196M
[4] = Experimental method 2, ATP 5.0 µM, substrate PolyE4Y1, read-out: Kinase half maximal inhibitory concentration IC50 TRKB

T1 sequence (Q9UM73 19-1620 L1196M/G1202R): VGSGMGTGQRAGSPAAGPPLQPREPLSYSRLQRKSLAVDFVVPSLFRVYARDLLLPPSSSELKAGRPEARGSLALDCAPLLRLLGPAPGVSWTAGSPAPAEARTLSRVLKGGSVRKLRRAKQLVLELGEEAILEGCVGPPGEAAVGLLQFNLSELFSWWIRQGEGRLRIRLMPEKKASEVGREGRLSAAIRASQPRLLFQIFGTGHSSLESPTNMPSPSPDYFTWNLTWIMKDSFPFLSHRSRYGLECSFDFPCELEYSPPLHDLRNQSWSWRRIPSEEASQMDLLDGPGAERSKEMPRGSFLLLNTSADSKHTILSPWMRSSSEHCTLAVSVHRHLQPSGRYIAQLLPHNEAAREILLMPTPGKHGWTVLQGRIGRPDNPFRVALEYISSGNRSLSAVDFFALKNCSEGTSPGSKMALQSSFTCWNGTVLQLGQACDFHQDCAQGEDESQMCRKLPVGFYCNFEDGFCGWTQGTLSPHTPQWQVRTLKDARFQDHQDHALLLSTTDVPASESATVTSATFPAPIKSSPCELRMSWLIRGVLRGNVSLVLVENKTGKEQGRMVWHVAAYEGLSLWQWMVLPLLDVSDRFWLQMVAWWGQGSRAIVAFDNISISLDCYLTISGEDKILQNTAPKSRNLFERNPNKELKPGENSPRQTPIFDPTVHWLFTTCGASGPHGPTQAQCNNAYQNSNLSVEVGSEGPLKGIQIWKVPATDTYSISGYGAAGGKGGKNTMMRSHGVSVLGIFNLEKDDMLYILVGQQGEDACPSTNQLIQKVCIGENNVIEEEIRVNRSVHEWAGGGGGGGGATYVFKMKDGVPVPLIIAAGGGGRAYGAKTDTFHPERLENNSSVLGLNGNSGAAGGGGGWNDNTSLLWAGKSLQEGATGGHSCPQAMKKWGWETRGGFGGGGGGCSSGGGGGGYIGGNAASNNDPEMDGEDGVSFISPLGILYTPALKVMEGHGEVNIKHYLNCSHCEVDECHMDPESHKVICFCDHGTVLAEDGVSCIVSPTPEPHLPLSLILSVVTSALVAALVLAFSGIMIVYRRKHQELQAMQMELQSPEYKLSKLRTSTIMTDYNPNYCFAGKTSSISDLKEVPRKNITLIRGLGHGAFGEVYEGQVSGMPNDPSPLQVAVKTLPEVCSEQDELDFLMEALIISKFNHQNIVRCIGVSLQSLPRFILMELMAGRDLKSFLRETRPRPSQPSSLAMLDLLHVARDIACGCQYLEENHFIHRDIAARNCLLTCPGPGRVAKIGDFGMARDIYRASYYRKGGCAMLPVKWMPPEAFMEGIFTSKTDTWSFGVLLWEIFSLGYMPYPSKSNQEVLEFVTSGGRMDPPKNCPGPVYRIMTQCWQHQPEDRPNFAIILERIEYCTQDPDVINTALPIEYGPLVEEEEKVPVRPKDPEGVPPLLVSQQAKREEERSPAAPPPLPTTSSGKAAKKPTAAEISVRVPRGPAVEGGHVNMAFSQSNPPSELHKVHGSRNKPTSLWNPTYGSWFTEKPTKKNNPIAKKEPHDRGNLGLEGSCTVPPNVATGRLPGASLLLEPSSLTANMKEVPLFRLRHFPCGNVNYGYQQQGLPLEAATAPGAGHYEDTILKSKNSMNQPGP

Compound | IC50 (ALK(G1202R/L1196M); [3]) | IC50 (TRKB; [4]) | IC50 [1] | IC50 (Ba/F3-TEL-TRKB) | also measured
CON=C1NCC2(CC2)COc2ccc(F)cc2CN2c3nc4c1cnn4cc3OC[C@H]2C(F)F [Compound 011] | 1.7 nM | 3.4 nM | – | – | –
Cc1nc2cc3c4nc2n1C(=O)NC(C)(C)COc1ccc(F)cc1CN4[C@H](C(F)F)CO3 [Compound 012] | – | – | 7 nM | 5.2 nM | IC50 (ALK(G1202R/L1196M)): 1.5 nM; IC50 (TRKB): 2.9 nM
CC1(C)COc2ncc(F)cc2CN2c3nc4c(cc3OC[C@H]2C(F)F)ncn4C(=O)N1 [Compound 013] | – | – | 1.2 nM | 0.3 nM | efflux ratio at 2.5 h, 2 µM [2]: 0.77; Papp A→B at 2.5 h, 2 µM ([2]; 2 µM, 150 minutes, pH 7.40): 11.8 ×10⁻⁶ cm/s; Papp B→A at 2.5 h, 2 µM ([2]; 2 µM, 150 minutes, pH 7.40): 9.02 ×10⁻⁶ cm/s
O=C1NC2(CC2)COc2ccc(F)cc2CN2c3nc4c(cc3OC[C@H]2C(F)F)ncn41 [Compound 014] | 0.4 nM | 0.7 nM | 5.3 nM | 0.2 nM | –
Cc1nn2cc3c4nc2c1C(=O)NC(C)(C)COc1ncc(F)cc1CN4[C@H](C(F)F)CO3 [Compound 015] | 0.6 nM | 1.1 nM | – | – | –
CC1(C)COc2ccc(F)cc2CN2c3nc4c(c(C5CC5)nn4cc3OC[C@H]2C(F)F)C(=O)N1 [Compound 017] | 15.3 nM | 31.3 nM | – | – | –
CC1(C)COc2ccc(F)cc2CN2c3nc4c(c(C#CC5CC5)nn4cc3OC[C@H]2C(F)F)C(=O)N1 [Compound 020] | 1.1 nM | 10 nM | – | – | –
O=C1NC2(CCC2)COc2ccc(F)cc2CN2c3nc4c1c(Br)nn4cc3OC[C@H]2C(F)F [Compound 021] | 4 nM | 7 nM | – | – | –
O=C1N[C@H]2C[C@H](C2)Oc2ccc(F)cc2CN2c3nc4c1c(Br)nn4cc3OC[C@H]2C(F)F [Compound 023] | 1.2 nM | 1.5 nM | 10.8 nM | 1.8 nM | –
